Test results: article PMC3832545 (PLoS ONE, 2013)

How the values were obtained:
MCF-7 cells = test: MTT cell proliferation assay, MCF-7 cells; type: cell-based, human; settings: 24 h, 0.1% (v/v) serum, 0.001 to 1000 nM, three independent experiments with four replicates
Procedure: Effect of test compounds on proliferation was assessed with 3-(4,5-dimethylthiazol-2-yl)-2,5-diphenyl tetrazolium bromide (MTT) assays, essentially as described previously. In brief, MC38 cells were plated in 96-well plates (5,000 cells per well) in growth medium. […] Data for relative cell numbers from the three repeated experiments, each with four replicate samples per condition, were then used to fit dose-response curves using GraphPad Prism version 6.0 (GraphPad Software Inc., La Jolla, CA, USA). Cell proliferation experiments were done with MCF-7 cells as described for MC38 cells, except that 20,000 cells were plated per well. See Materials S1 and Figure S1 for detailed supplementary information regarding cell proliferation experiments.
In initial tests the association between number of cells and absorbance at 570 nm measured in an MTT assay was examined after incubation of MC38 cells with MTT for 3 h, 3 h after plating different number of cells per well, i.e., the total incubation period was 6 h. As expected there was a highly linear relationship between absolute number of cells and the measured absorbance (Figure S1). […] After incubation for 1 day cells were rinsed in PBS (room temperature) and then starvation medium was added. […] Control samples were treated with starvation medium only. After treatment for 21 h, 10 µl stock solution of MTT dissolved in PBS (5.0 mg/ml) was added to each well, and incubation was continued for 3 h so treatment with test compounds in total lasted 24 h. At the end of the treatment period medium with test compounds was removed and formazan crystals were suspended by adding 100 µl 0.04 M HCl dissolved in isopropanol to each well and absorbance was thereafter read at 570 nm using a Emax PC plate reader (Molecular Devices LLC, Sunnyvale, CA, USA). Each treatment was done with four replicate samples and three independent experiments were performed. In each experiment the absorbance was normalized to the mean absorbance in the untreated control samples. […]

[1] = test system: PI3K signalling pathway in MC38 cell allografts; test: Signalling in MC38 tumor allografts in vivo, Western blot; parameters: species or system mouse; settings: MC38 tumor allografts collected 1 h after sc administration, DIO-mice
Procedure: We focused on different endpoints in these animal experiments and monitored tumor growth in all experiments, see Table 1. The animal experiments were performed as described recently. […] Animal care and treatments were conducted in accordance with established guidelines and protocols approved by the Lady Davis Institute (protocol # 5951) and McGill University's Animal Ethics Committee. Mice were housed one mouse per cage with ad libitum access to tap water and high- or low fat diet, respectively, throughout the studies. The temperature in the animal rooms was maintained at 20-25°C with a light/dark cycle of 14/10 hours. Mice were acclimatized for 7-10 days before experimental procedures were initiated. At experimental day 0, 2.0×10^5 (experiment A) or 5.0×10^5 (all other experiments) MC38 cells, suspended in 100 μl phosphate-buffered saline (PBS), were injected subcutaneously (sc) in the right flank of the mice. […] The size of the tumor allografts was measured three times per week and the volume calculated using the following formula: length × width^2 × 0.52. Based on the tumor volume data for each mouse, we calculated the area under the tumor growth curves (tumor growth AUC). At termination of the experiments, mice were anesthetized with isoflurane. […] Incubation with secondary antibody (horse radish peroxidase-conjugated goat anti-rabbit IgG (Santa-Cruz Biotechnology, Santa Cruz, CA, USA, cat. no 5401) and visualization of protein bands was done as described previously. The intensity of protein bands was quantified using the software ImagePro (BioRad). In each cell signalling experiment, band intensities were normalized to the mean of the vehicle-treated samples. IR and IGF-1R bands in the liver, muscle colon and MC38 cell allografts were normalized to mean band intensities in liver and muscle samples, respectively.

[2] = Blood glucose (pharmacodynamics) after sc injection in DIO-mice; type: in vivo, mouse; settings: 600 nmol/kg sc, n = 8
From the text: Blood was collected by puncture of the saphenous vein and blood glucose measured using a OneTouch Ultra Glucometer (LifeScan, Inc., Milpitas, CA, USA).

IGF-1: recombinant human IGF-1 (Increlex, IPSEN Pharma GmbH)
Ranking according to mitogenic potency (MTT assay) (MCF-7 cells): IGF-1>X10>HI | Activation of Akt, p70S6K and mTOR in tumor allografts [1]: pronounced activation | Effect on blood glucose [2]: rapidly lowered blood glucose | Time until blood glucose returned to basal levels [2]: 3 to 4 h

human insulin [HI]
Ranking according to mitogenic potency (MTT assay) (MCF-7 cells): IGF-1>X10>HI | Activation of Akt, p70S6K and mTOR in tumor allografts [1]: pronounced activation | Effect on blood glucose [2]: rapidly lowered blood glucose | Time until blood glucose returned to basal levels [2]: 3 to 4 h

insulin analog B10Asp [X10]
Ranking according to mitogenic potency (MTT assay) (MCF-7 cells): IGF-1>X10>HI | Activation of Akt, p70S6K and mTOR in tumor allografts [1]: pronounced activation | Effect on blood glucose [2]: rapidly lowered blood glucose | Time until blood glucose returned to basal levels [2]: 3 to 4 h
